Several values for one entry are separate records, joined by “and”; a condition that tells them apart may be missing. Equal values may be shown once. Toxic doses and inconclusive results are not listed. Rule for the calls: active = survival T/C of 150% or more; inactive = T/C below 125% in these data. Peptide text beside a SMILES is read from it. * marks the point of attachment. Cbz = O=C(OCc1ccccc1)*
Test system: P388 leukemia ip, CD2F1 mice, survival T/C
Test: NCI In Vivo Anticancer Drug Screen. Data for tumor model P388 Leukemia (intraperitoneal) in CD2F1 (CDF1) mice
Conditions: endpoint: median survival time, higher = longer survival
How it was run: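 Mice carrying the transplanted tumor received test compound or vehicle. Survival was recorded in each group, and the value is the treated-group measurement divided by that of the vehicle-treated control group.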

[1] = dose: 50.0 mg/kg/injection, schedule: Q01DX009 (ip), vehicle: Klucel (hydroxypropylcellulose) (HPC)
[2] = dose: 100.0 mg/kg/injection, schedule: Q01DX009 (ip), vehicle: Klucel (hydroxypropylcellulose) (HPC)
[3] = dose: 200.0 mg/kg/injection, schedule: Q01DX009 (ip), vehicle: Klucel (hydroxypropylcellulose) (HPC)
[4] = dose: 25.0 mg/kg/injection, schedule: Q01DX009 (ip), vehicle: saline with Tween-80
[5] = dose: 50.0 mg/kg/injection, schedule: Q01DX009 (ip), vehicle: saline with Tween-80
[6] = dose: 100.0 mg/kg/injection, schedule: Q01DX009 (ip), vehicle: saline with Tween-80

Measured: T/C

O=C(O)CSc1nnc(Cc2cccc3ccccc23)n1-c1ccccc1
inactive: dose: 50.0 mg/kg/injection, schedule: Q01DX005 (ip), vehicle: Klucel (hydroxypropylcellulose) (HPC) 100 % of control | dose: 100.0 mg/kg/injection, schedule: Q01DX005 (ip), vehicle: Klucel (hydroxypropylcellulose) (HPC) 102 % of control | dose: 200.0 mg/kg/injection, schedule: Q01DX005 (ip), vehicle: Klucel (hydroxypropylcellulose) (HPC) 100 % of control

Cc1cc(C)c(Cn2c(=O)[nH][nH]c2=O)cc1Cn1c(=O)[nH][nH]c1=O
inactive: [1] 107 % of control | [2] 100 % of control | [3] 100 % of control

Oc1c(CN2CCCCC2)ccc2cccnc12
inactive: dose: 0.78 mg/kg/injection, schedule: Q01DX009 (ip), vehicle: saline with Tween-80 107 % of control and 92 % of control | dose: 1.56 mg/kg/injection, schedule: Q01DX009 (ip), vehicle: saline with Tween-80 99 % of control and 97 % of control | dose: 3.12 mg/kg/injection, schedule: Q01DX009 (ip), vehicle: saline with Tween-80 107 % of control | dose: 6.25 mg/kg/injection, schedule: Q01DX009 (ip), vehicle: saline with Tween-80 99 % of control and 110 % of control and 122 % of control | dose: 12.5 mg/kg/injection, schedule: Q01DX009 (ip), vehicle: saline with Tween-80 99 % of control and 106 % of control and 108 % of control | [4] 113 % of control | [5] 113 % of control

CCCCCCC1CC2CCCCN2O1 (stereo not drawn)
inactive: dose: 40.0 mg/kg/injection, schedule: Q01DX009 (ip), vehicle: Klucel (hydroxypropylcellulose) (HPC) 113 % of control | dose: 80.0 mg/kg/injection, schedule: Q01DX009 (ip), vehicle: Klucel (hydroxypropylcellulose) (HPC) 107 % of control | dose: 160.0 mg/kg/injection, schedule: Q01DX009 (ip), vehicle: Klucel (hydroxypropylcellulose) (HPC) 119 % of control

COc1cc(/C=C2\SC(=O)N(C)C2=O)ccc1O
inactive: [5] 104 % of control | [6] 90 % of control | dose: 200.0 mg/kg/injection, schedule: Q01DX009 (ip), vehicle: saline with Tween-80 87 % of control

CCOC(=O)CCC(Br)(Br)Br
inactive: [1] 100 % of control | [2] 100 % of control | [3] 97 % of control

COC(=O)/C=C(\C)NC1CC(OC2C[C@](O)(C(C)=O)Cc3c(O)c4c(c(O)c32)C(=O)c2c(OC)cccc2C4=O)OC(C)C1O (stereo partly drawn)
inactive: dose: 6.25 mg/kg/injection, schedule: Q04DX003 (ip), vehicle: saline with Tween-80 105 % of control | dose: 12.5 mg/kg/injection, schedule: Q04DX003 (ip), vehicle: saline with Tween-80 110 % of control and 113 % of control | dose: 50.0 mg/kg/injection, schedule: Q04DX003 (ip), vehicle: saline with Tween-80 96 % of control

COc1ccc2c3c([nH]c2c1[N+](=O)[O-])C(C)N(C)CC3 (stereo not drawn)
inactive: dose: 8.5 mg/kg/injection, schedule: Q01DX005 (ip), vehicle: Klucel (hydroxypropylcellulose) (HPC) 107 % of control | dose: 17.0 mg/kg/injection, schedule: Q01DX005 (ip), vehicle: Klucel (hydroxypropylcellulose) (HPC) 101 % of control

Cc1cc(N=C2C=CC(=[N+](C)C)C=C2)c(N)cc1N
inactive: [4] 107 % of control | [5] 107 % of control

O=c1c2ccccc2sc2c([N+](=O)[O-])ccc(NCCC3CCCN4CCCCC34)c12 (stereo not drawn)
inactive: dose: 44.5 mg/kg/injection, schedule: Q01DX005 (ip), vehicle: saline with Tween-80 95 % of control | dose: 89.0 mg/kg/injection, schedule: Q01DX005 (ip), vehicle: saline with Tween-80 94 % of control | dose: 178.0 mg/kg/injection, schedule: Q01DX005 (ip), vehicle: saline with Tween-80 96 % of control | dose: 356.0 mg/kg/injection, schedule: Q01DX005 (ip), vehicle: saline with Tween-80 100 % of control

CCCCOP(O)(=S)OCCCC.[Tb]
inactive: dose: 100.0 mg/kg/injection, schedule: Q04DX002 (ip), vehicle: saline with Tween-80 100 % of control | dose: 200.0 mg/kg/injection, schedule: Q04DX002 (ip), vehicle: saline with Tween-80 96 % of control | dose: 400.0 mg/kg/injection, schedule: Q04DX002 (ip), vehicle: saline with Tween-80 95 % of control

CCCOC1(C)Oc2cc3c(cc2C(c2cc(OC)c(OC)c(OC)c2)C1C)OCO3 (stereo not drawn)
inactive: dose: 60.0 mg/kg/injection, schedule: Q01DX005 (ip), vehicle: Klucel (hydroxypropylcellulose) (HPC) 97 % of control | dose: 120.0 mg/kg/injection, schedule: Q01DX005 (ip), vehicle: Klucel (hydroxypropylcellulose) (HPC) 96 % of control | dose: 240.0 mg/kg/injection, schedule: Q01DX005 (ip), vehicle: Klucel (hydroxypropylcellulose) (HPC) 99 % of control

O=C(NC(Cc1ccc(O)cc1)C(=O)NC(CO)C(=O)O)OCc1ccccc1 (stereo not drawn) (Cbz-Tyr-Ser-OH; configuration not given here)
inactive: dose: 50.0 mg/kg/injection, schedule: Q01DX005 (ip), vehicle: saline with Tween-80 101 % of control | dose: 100.0 mg/kg/injection, schedule: Q01DX005 (ip), vehicle: saline with Tween-80 101 % of control | dose: 200.0 mg/kg/injection, schedule: Q01DX005 (ip), vehicle: saline with Tween-80 106 % of control

OC1CCC(O)C1(Cl)Cl (stereo not drawn)
inactive: dose: 25.0 mg/kg/injection, schedule: Q04DX003 (ip), vehicle: saline 99 % of control and 96 % of control | dose: 50.0 mg/kg/injection, schedule: Q04DX003 (ip), vehicle: saline 98 % of control and 107 % of control | dose: 100.0 mg/kg/injection, schedule: Q04DX003 (ip), vehicle: saline 98 % of control and 103 % of control and 118 % of control | dose: 200.0 mg/kg/injection, schedule: Q04DX003 (ip), vehicle: saline 98 % of control and 101 % of control and 124 % of control | dose: 400.0 mg/kg/injection, schedule: Q04DX003 (ip), vehicle: saline 117 % of control

CCOC(=O)C(Cc1c[nH]c2ccccc12)NCc1ccc(N(CCCl)CCCl)cc1 (stereo not drawn)
inactive: dose: 10.0 mg/kg/injection, schedule: Q01DX009 (ip), vehicle: saline with Tween-80 94 % of control | dose: 20.0 mg/kg/injection, schedule: Q01DX009 (ip), vehicle: saline with Tween-80 110 % of control | dose: 40.0 mg/kg/injection, schedule: Q01DX009 (ip), vehicle: saline with Tween-80 110 % of control | [5] 97 % of control | dose: 80.0 mg/kg/injection, schedule: Q01DX009 (ip), vehicle: saline with Tween-80 123 % of control | [6] 106 % of control

CC(O)c1cc2c(o1)C(=O)c1cccc(O)c1C2=O (stereo not drawn)
inactive: dose: 9.38 mg/kg/injection, schedule: Q01DX005 (ip), vehicle: Klucel (hydroxypropylcellulose) (HPC) 95 % of control | dose: 18.75 mg/kg/injection, schedule: Q01DX005 (ip), vehicle: Klucel (hydroxypropylcellulose) (HPC) 95 % of control | dose: 37.5 mg/kg/injection, schedule: Q01DX005 (ip), vehicle: Klucel (hydroxypropylcellulose) (HPC) 95 % of control

CCCCCN(C)/N=N/c1nc[nH]c1C(N)=O
inactive: dose: 100.0 mg/kg/injection, schedule: Q04DX003 (ip), vehicle: saline with Tween-80 120 % of control | dose: 200.0 mg/kg/injection, schedule: Q04DX003 (ip), vehicle: saline with Tween-80 110 % of control | dose: 600.0 mg/kg/injection, schedule: Q04DX003 (ip), vehicle: saline with Tween-80 90 % of control

CC(=O)N(Sc1ccccc1)c1ccccc1
inactive: [4] 110 % of control | [5] 106 % of control | [6] 103 % of control

N#CC(Cc1ccccc1)c1ccccc1 (stereo not drawn)
inactive: dose: 25.0 mg/kg/injection, schedule: Q01DX009 (ip), vehicle: distilled water + Tween-80 95 % of control | dose: 50.0 mg/kg/injection, schedule: Q01DX009 (ip), vehicle: distilled water + Tween-80 110 % of control | dose: 100.0 mg/kg/injection, schedule: Q01DX009 (ip), vehicle: distilled water + Tween-80 93 % of control

O=C1CSC(c2ccc(F)cc2)N1CCN1C(=O)CSC1c1ccc(F)cc1 (stereo not drawn)
inactive: dose: 60.0 mg/kg/injection, schedule: Q01DX005 (ip), vehicle: saline with Tween-80 106 % of control | dose: 120.0 mg/kg/injection, schedule: Q01DX005 (ip), vehicle: saline with Tween-80 100 % of control | dose: 240.0 mg/kg/injection, schedule: Q01DX005 (ip), vehicle: saline with Tween-80 95 % of control

From PubChem BioAssay AID330 (DTP/NCI, 2004)
